# Literature values as cited in patent US20240374563A1, “ANTICHOLINERGIC COMPOUNDS FOR USE IN TREATING NEUROMUSCULAR DISORDERS” (UNIVERSITY OF MONTRÉAL, priority 2022, published 2024).
# Tested on: ALS patients
# Settings: cited from earlier work
smiles,measurement,value
Nc1nc2ccc(OC(F)(F)F)cc2s1 [Riluzole],share of ALS patients who benefit,20%
